Patent US20250222146A1, “Radiopharmaceuticals Targeting Somatostatin Receptor 2 and Uses Thereof” (RayzeBio, Inc., priority 2023, published 2025)
Numbered stars: 1 amine (or outer) side, 2 acyl side, 3 side chain; on linkers, the order of the positions; unused ones are H or OH. Square brackets hold non-standard residues; d marks the D form. Side chains are listed from the residue outwards. Peptide text beside a SMILES is read from it. * marks the point of attachment. DOTA(Lu)NH(CH2)6NHCOCH2 = O=C(CN1CCN2CCN3CCN(CC1)CC(=O)[O][Lu]([O]C(=O)C2)[O]C(=O)C3)NCCCCCCNC(=O)C*; DOTA(Lu) = O=C1CN2CCN3CCN(CC(=O)*)CCN(CC2)CC(=O)[O][Lu]([O]1)[O]C(=O)C3; dTrp(βS-Me) = C[C@@H](c1c[nH]c2ccccc12)[C@@H](N)C(=O)O; X4 = C[C@@H](c1ccccc1)[C@H](N[*:1])C(=O)[*:2]; Phe(3R-Me) = C[C@H](c1ccccc1)[C@H](N)C(=O)O; X22 = O=C([C@H](Cc1ccc(O)nc1)N[*:1])[*:2]; 3Pal = N[C@@H](Cc1cccnc1)C(=O)O; 4Pal = N[C@@H](Cc1ccncc1)C(=O)O; NMeOrn = CN[C@@H](CCCN)C(=O)O; NMehCys = CN[C@@H](CCS)C(=O)O; NMeC = CN[C@@H](CS)C(=O)O; Ahx = NCCCCCC(=O)O

Target: SSTR2 (Homo sapiens, UniProt P30874)
Sequence (P30874 whole entry): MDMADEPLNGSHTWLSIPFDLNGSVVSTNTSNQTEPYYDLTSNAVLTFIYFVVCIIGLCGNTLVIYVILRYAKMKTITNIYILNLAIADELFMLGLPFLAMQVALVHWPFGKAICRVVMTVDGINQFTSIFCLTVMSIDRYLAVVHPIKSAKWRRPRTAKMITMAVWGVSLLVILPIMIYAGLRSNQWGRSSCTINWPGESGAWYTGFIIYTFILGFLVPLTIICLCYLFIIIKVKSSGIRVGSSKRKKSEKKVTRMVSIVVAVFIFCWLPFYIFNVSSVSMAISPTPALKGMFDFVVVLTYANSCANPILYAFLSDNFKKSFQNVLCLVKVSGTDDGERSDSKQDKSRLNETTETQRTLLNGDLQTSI
Experiment: SSTR binding affinity by radioligand binding competition assay ([125I]-Tyr11-Somatostatin, membrane extracts)
Settings: SSTR2 Ki, radioligand competition, [125I]-Tyr11-Somatostatin 0.1 nM, membrane extracts; Ki from IC50 by Cheng Prusoff
Method: Macrocyclic peptides in this invention were tested for binding to SSTR protein by a radioligand binding competition assay. For radioligand binding assay, competition binding is performed in duplicate in the wells of a 96 well plate containing binding buffer (HEPES 25 mM pH 7.4, MgCl2 5 mM, CaCl2 1 mM, BSA 0.5%, Saponine 10 μg/ml)), membrane extracts (0.6 μg protein/well), radiotracer ([125I]-Tyr11-Somatostatin, Perkin Elmer NEX389) and test compound. Nonspecific binding is determined by co-incubation with 200-fold excess of cold competitor (SST28). The samples are incubated in a final volume of 0.1 ml for 60 min at room temperature and then filtered over UniFilter-96 GF/C (Revvity 6055690) filter plates. Filters are washed six times with 0.5 ml of ice-cold washing buffer (HEPES 25 mM pH 7.4, MgCl2 5 mM, CaCl2 1 mM) and 50 μl of Microscint 20 (Packard) are added in each well. The plates are incubated 15 min on an orbital shaker and then counted with a TopCount™ for 1 min/well. For IC50 to Ki determination, the Cheng Prusoff equation is used: Ki=IC50/(1+ [tracer]/Kd). [Tracer] is 0.1 nM as mentioned above.

SMILES	Ki [nM]
CC(C)[C@@H]1NC(=O)[C@H](CCCCN)NC(=O)[C@@H](Cc2c[nH]c3ccccc23)NC(=O)[C@H](Cc2ccc(O)cc2)NC(=O)[C@H](CSCC(=O)NCCCCCCNC(=O)CN2CCN3CCN4CCN(CC2)CC(=O)[O][Lu]([O]C(=O)C3)[O]C(=O)C4)N(C)C(=O)[C@H](Cc2ccccc2)NC1=O [RB-0002674] (cyclo(F[NMeC](DOTA(Lu)NH(CH2)6NHCOCH2)Y[dW]KV))	1 to 3.33
C[C@@H](O)[C@@H]1NC(=O)[C@H](CCCCN)NC(=O)[C@@H](Cc2c[nH]c3ccccc23)NC(=O)[C@H](Cc2ccc(O)cc2)NC(=O)[C@H](CSCC(=O)NCCCCCCNC(=O)CN2CCN3CCN4CCN(CC2)CC(=O)[O][Lu]([O]C(=O)C3)[O]C(=O)C4)N(C)C(=O)[C@H](Cc2ccccc2)NC1=O [RB-0003164]	1 to 3.33
C[C@@H](O)[C@@H]1NC(=O)[C@H](CCCCN)NC(=O)[C@@H](Cc2c[nH]c3ccccc23)NC(=O)[C@H](Cc2ccc(O)cc2)NC(=O)[C@H](CCCCNC(=O)[C@H]2CC[C@H](CNC(=O)CN3CCN4CCN5CCN(CC3)CC(=O)[O][Lu]([O]C(=O)C4)[O]C(=O)C5)CC2)N(C)C(=O)[C@H](Cc2ccccc2)NC1=O [RB-0003246]	1 to 3.33
C[C@@H](O)[C@@H]1NC(=O)[C@H](CCCCN)NC(=O)[C@@H](Cc2c[nH]c3ccccc23)NC(=O)[C@H](Cc2ccc(O)cc2)NC(=O)[C@H](CCCCNC(=O)COCCOCCOCCNC(=O)CN2CCN3CCN4CCN(CC2)CC(=O)[O][Lu]([O]C(=O)C3)[O]C(=O)C4)N(C)C(=O)[C@H](Cc2ccccc2)NC1=O [RB-0003248]	3.33 to 10

Same assay, conditions: radioligand competition, [125I]-Tyr11-Somatostatin 0.1 nM, membrane extracts; Ki from IC50 by Cheng Prusoff; read-out: SSTR2 Ki

SMILES	Ki [nM]
CC(C)[C@@H]1NC(=O)[C@H](CCCCN)NC(=O)[C@@H](Cc2c[nH]c3ccccc23)NC(=O)[C@H](Cc2ccc(O)cc2)NC(=O)[C@H](CCCNC(=O)CCCCCNC(=O)CN2CCN3CCN4CCN(CC2)CC(=O)[O][Lu]([O]C(=O)C3)[O]C(=O)C4)N(C)C(=O)[C@H](Cc2ccccc2)NC1=O [RB-0002672] (cyclo(F[NMeOrn]([Ahx-DOTA(Lu)])Y[dW]KV))	1 to 3.33
CCN(C)CC(=O)[O][Lu]1[O]C(=O)CN(C)CCN(CCN(CC)CC(=O)NCCCCCCNC(=O)CCC[C@H]2C(=O)N[C@@H](CC3=CC=C(O)C=C3)C(=O)N[C@H](CC3=CNC4=C3C=CC=C4)C(=O)N[C@@H](CCCCN)C(=O)N[C@@H](C(C)C)C(=O)N[C@@H](CC3=CC=CC=C3)C(=O)N2C)CC(=O)[O]1 [RB-0002680] (HELM PEPTIDE1{F.[CN([C@@H](CCCC(=O)[*:3])C(=O)[*:2])[*:1]].Y.[dW].K.V}|CHEM1{[CCN(C)CC(=O)[O][Lu]1[O]C(=O)CN(C)CCN(CCN(CC)CC(=O)NCCCCCCN[*:1])CC(=O)[O]1]}$PEPTIDE1,CHEM1,2:R3-1:R1|PEPTIDE1,PEPTIDE1,1:R1-6:R2$$$V2.0)	1 to 3.33
C[C@@H](O)[C@@H]1NC(=O)[C@H](CCCCN)NC(=O)[C@@H](Cc2c[nH]c3ccccc23)NC(=O)[C@H](Cc2cccnc2)NC(=O)[C@H](CSCC(=O)NCCCCCCNC(=O)CN2CCN3CCN4CCN(CC2)CC(=O)[O][Lu]([O]C(=O)C3)[O]C(=O)C4)N(C)C(=O)[C@H](Cc2ccccc2)NC1=O [RB-0002946] (cyclo([3Pal][dW]KTF[NMeC](DOTA(Lu)NH(CH2)6NHCOCH2)))	10 to 33.3
C[C@@H](O)[C@@H]1NC(=O)[C@H](CCCCN)NC(=O)[C@@H](Cc2c[nH]c3ccccc23)NC(=O)[C@H](Cc2ccncc2)NC(=O)[C@H](CSCC(=O)NCCCCCCNC(=O)CN2CCN3CCN4CCN(CC2)CC(=O)[O][Lu]([O]C(=O)C3)[O]C(=O)C4)N(C)C(=O)[C@H](Cc2ccccc2)NC1=O [RB-0002947] (cyclo([4Pal][dW]KTF[NMeC](DOTA(Lu)NH(CH2)6NHCOCH2)))	3.33 to 10
C[C@@H](O)[C@@H]1NC(=O)[C@H](CCCCN)NC(=O)[C@@H](Cc2c[nH]c3ccccc23)NC(=O)[C@H](Cc2cccnc2)NC(=O)[C@H](CCSCC(=O)NCCCCCCNC(=O)CN2CCN3CCN4CCN(CC2)CC(=O)[O][Lu]([O]C(=O)C3)[O]C(=O)C4)N(C)C(=O)[C@H](Cc2ccccc2)NC1=O [RB-0003000] (cyclo([3Pal][dW]KTF[NMehCys](DOTA(Lu)NH(CH2)6NHCOCH2)))	< 1
C[C@@H](O)[C@@H]1NC(=O)[C@H](CCCCN)NC(=O)[C@@H](Cc2c[nH]c3ccccc23)NC(=O)[C@H](Cc2ccncc2)NC(=O)[C@H](CCSCC(=O)NCCCCCCNC(=O)CN2CCN3CCN4CCN(CC2)CC(=O)[O][Lu]([O]C(=O)C3)[O]C(=O)C4)N(C)C(=O)[C@H](Cc2ccccc2)NC1=O [RB-0003002] (cyclo([4Pal][dW]KTF[NMehCys](DOTA(Lu)NH(CH2)6NHCOCH2)))	< 1
CCN(C)CC(=O)[O][Lu]1[O]C(=O)CN(C)CCN(CCN(CC)CC(=O)NCCCCCC(=O)NCCCCC[C@H]2C(=O)N[C@@H](Cc3ccc(O)cc3)C(=O)N[C@H](Cc3c[nH]c4ccccc34)C(=O)N[C@@H](CCCCN)C(=O)N[C@@H]([C@@H](C)O)C(=O)N[C@@H](Cc3ccccc3)C(=O)N2C)CC(=O)[O]1 [RB-0003057]	< 1
C[C@@H](O)[C@@H]1NC(=O)[C@H](CCCCN)NC(=O)[C@@H](Cc2c[nH]c3ccccc23)NC(=O)[C@H]([C@@H](C)c2ccccc2)NC(=O)[C@H](CCSCC(=O)NCCCCCCNC(=O)CN2CCN3CCN4CCN(CC2)CC(=O)[O][Lu]([O]C(=O)C3)[O]C(=O)C4)N(C)C(=O)[C@H](Cc2ccccc2)NC1=O [RB-0003136] (cyclo(F[NMehCys](DOTA(Lu)NH(CH2)6NHCOCH2)[X4][dW]KT))	1 to 3.33
C[C@H](c1ccccc1)[C@@H]1NC(=O)[C@H](CCSCC(=O)NCCCCCCNC(=O)CN2CCN3CCN4CCN(CC2)CC(=O)[O][Lu]([O]C(=O)C3)[O]C(=O)C4)N(C)C(=O)[C@H](Cc2ccccc2)NC(=O)[C@H]([C@@H](C)O)NC(=O)[C@H](CCCCN)NC(=O)[C@@H](Cc2c[nH]c3ccccc23)NC1=O [RB-0003137] (cyclo(F[NMehCys](DOTA(Lu)NH(CH2)6NHCOCH2)[Phe(3R-Me)][dW]KT))	< 1
C[C@@H](O)[C@@H]1NC(=O)[C@H](CCCCN)NC(=O)[C@@H]([C@@H](C)c2c[nH]c3ccccc23)NC(=O)[C@H](Cc2ccc(O)cc2)NC(=O)[C@H](CCSCC(=O)NCCCCCCNC(=O)CN2CCN3CCN4CCN(CC2)CC(=O)[O][Lu]([O]C(=O)C3)[O]C(=O)C4)N(C)C(=O)[C@H](Cc2ccccc2)NC1=O [RB-0003148] (cyclo(F[NMehCys](DOTA(Lu)NH(CH2)6NHCOCH2)Y[dTrp(βS-Me)]KT))	< 1
C[C@@H](O)[C@@H]1NC(=O)[C@H](CCCCN)NC(=O)[C@@H](Cc2c[nH]c3ccccc23)NC(=O)[C@H](Cc2ccc(O)cc2)NC(=O)[C@H](CCSCC(=O)NCCCCCCNC(=O)CN2CCN3CCN4CCN(CC2)CC(=O)[O][Lu]([O]C(=O)C3)[O]C(=O)C4)N(C)C(=O)[C@H](Cc2cccnc2)NC1=O [RB-0003276] (cyclo([3Pal][NMehCys](DOTA(Lu)NH(CH2)6NHCOCH2)Y[dW]KT))	3.33 to 10
C[C@@H](O)[C@@H]1NC(=O)[C@H](CCCCN)NC(=O)[C@@H](Cc2c[nH]c3ccccc23)NC(=O)[C@H](Cc2ccc(O)cc2)NC(=O)[C@H](CCSCC(=O)NCCCCCCNC(=O)CN2CCN3CCN4CCN(CC2)CC(=O)[O][Lu]([O]C(=O)C3)[O]C(=O)C4)N(C)C(=O)[C@H](Cc2ccncc2)NC1=O [RB-0003277] (cyclo([4Pal][NMehCys](DOTA(Lu)NH(CH2)6NHCOCH2)Y[dW]KT))	1 to 3.33
C[C@@H](O)[C@@H]1NC(=O)[C@H](CCCCN)NC(=O)[C@@H](Cc2c[nH]c3ccccc23)NC(=O)[C@H](Cc2ccc(O)cc2)NC(=O)[C@H](CCSCC(=O)NCCCCCCNC(=O)CN2CCN3CCN4CCN(CC2)CC(=O)[O][Lu]([O]C(=O)C3)[O]C(=O)C4)N(C)C(=O)[C@H]([C@@H](C)c2ccccc2)NC1=O [RB-0003278] (cyclo(KT[X4][NMehCys](DOTA(Lu)NH(CH2)6NHCOCH2)Y[dW]))	1 to 3.33
C[C@@H](O)[C@@H]1NC(=O)[C@H](CCCCN)NC(=O)[C@@H](Cc2c[nH]c3ccccc23)NC(=O)[C@H](Cc2ccc(O)cc2)NC(=O)[C@H](CCSCC(=O)NCCCCCCNC(=O)CN2CCN3CCN4CCN(CC2)CC(=O)[O][Lu]([O]C(=O)C3)[O]C(=O)C4)N(C)C(=O)[C@H](Cc2ccc(O)nc2)NC1=O [RB-0003279] (cyclo(KT[X22][NMehCys](DOTA(Lu)NH(CH2)6NHCOCH2)Y[dW]))	3.33 to 10

Same assay, conditions: read-out: SSTR2 Ki; radioligand competition, [125I]-Tyr11-Somatostatin 0.1 nM, membrane extracts; Ki from IC50 by Cheng Prusoff

SMILES	Ki [nM]
CC(C)[C@@H]1NC(=O)[C@H](CCCCN)NC(=O)[C@@H](Cc2c[nH]c3ccccc23)NC(=O)[C@H](Cc2ccc(O)cc2)NC(=O)[C@H](CCC(=O)NCCCCCCNC(=O)CN2CCN(CC(=O)O)CCN(CC(=O)O)CCN(CC(=O)O)CC2)N(C)C(=O)[C@H](Cc2ccccc2)NC1=O [RB-0002678] (HELM PEPTIDE1{F.[CN([C@@H](CCC(=O)[*:3])C(=O)[*:2])[*:1]].Y.[dW].K.V}|CHEM1{[O=C(O)CN1CCN(CC(=O)O)CCN(CC(=O)NCCCCCCN[*:1])CCN(CC(=O)O)CC1]}$PEPTIDE1,CHEM1,2:R3-1:R1|PEPTIDE1,PEPTIDE1,1:R1-6:R2$$$V2.0)	3.33 to 10
C[C@@H](O)[C@@H]1NC(=O)[C@H](CCCCN)NC(=O)[C@@H](Cc2c[nH]c3ccccc23)NC(=O)[C@H](Cc2ccc(O)cc2)NC(=O)[C@H](CCCCC(=O)NCCCCCCNC(=O)CN2CCN(CC(=O)O)CCN(CC(=O)O)CCN(CC(=O)O)CC2)N(C)C(=O)[C@H](Cc2ccccc2)NC1=O [RB-0003055]	< 1
